Experimental data: publication PMC11513893, “Discovery of Oral Degraders of the ROS1 Fusion Protein with Potent Activity against Secondary Resistance Mutations” (Journal of Medicinal Chemistry, 2024)

Experiments:
ROS1 (G2032R) = ROS1 (G2032R) (Homo sapiens, UniProt P08922, G2032R); assay: Kinase assay; format: biochemical; conditions: average of duplicate measurements
[1] = test system: Ba/F3 CD74-ROS1 WT xenograft tumors; assay: Mouse efficacy study, Ba/F3 CD74-ROS1 xenograft; format: in vivo; conditions: NOD/SCID mice
Description: All the procedures related to animal handling, care, and treatment in this study were performed according to guidelines approved by the Institutional Animal Care and Use Committee (IACUC) of Xavier University of Louisiana following the guidance of the AAALAC. Ba/F3-ROS1 and Ba/F3-ROS1-G2032R cells were maintained in RPMI 1640 medium supplemented with 10% fetal bovine serum. The cells growing in an exponential growth phase were harvested and counted for tumor inoculation. Female NOD/SCID mice 6–8 weeks of age were allowed to adapt to laboratory conditions for 10 days prior to dosing and were allowed food and water ad libitum. Each mouse was inoculated subcutaneously in the right flank with Ba/F3 CD74-ROS1 or Ba/F3 SL34A2-ROS1 G2032R cells (1 × 10^6) in 0.2 mL of PBS mixed with Matrigel (50:50) for tumor development.

EGFR = EGFR (Homo sapiens, UniProt P00533); assay: Kinase assay; format: biochemical; conditions: average of duplicate measurements
[2] = test system: Ba/F3 CD74-ROS1 non mutant; assay: Antiproliferation assay (Alamar Blue, 72 h); format: cell-based, mouse; conditions: Mus musculus, BaF3, 72 h, Ba/F3 cells, cell growth inhibition
CHEK2 = CHEK2 (Homo sapiens, UniProt O96017); assay: Degradation assay; format: cell-based; conditions: average of duplicate measurements
Description: However, the degradation selectivity of 9o often contrasts with its kinase binding selectivity as determined in cells treated with 9o where the kinase level was measurable by Western blot analysis. […] For example, FLT3, CHEK2, and FES, all with kinase binding at <10 nM, were only moderately or minimally degraded, if at all (Table 9).

Ba/F3 ROS1-G2032R = assay: Antiproliferation assay; format: cell-based, mouse; conditions: Mus musculus, BaF3; Ba/F3 cells, cell growth inhibition, 72 h
C-MET = C-MET (Homo sapiens, UniProt P08581); assay: Kinase assay; format: biochemical; conditions: average of duplicate measurements
[3] = test system: Ba/F3 ROS1 L2086F, S1986F/L2086F, S1986F/G2032R/L2086F; assay: Antiproliferation assay, resistant mutations involving L2086F; format: cell-based; conditions: Mus musculus, BaF3; Ba/F3 cells, summary of Table 6; read-out: potency against resistant mutations involving L2086F, S1986F/L2086F, S1986F/G2032R/L2086F
Description: To assess the 72 h effect of drug treatment on cell proliferation, 2000 to 3000 cells were plated in replicates of three in 96-well plates. The plates were placed in an incubator at 37 °C, 5% CO2 for 72 h. Following drug treatments, the cells were incubated with the Alamar Blue Assay reagent (BioRad), 5 μL each well for 4 h at 37 °C and 5% CO2. Luminescence was measured on a multiplate reader and analyzed. […] IC50 values were determined using a nonlinear regression model with a sigmoidal dose response in GraphPad. The data were collected based on triplicate experiments, and presented as mean ± SD.

ROS1 (L2086F) = ROS1 (L2086F) (Homo sapiens, UniProt P08922, L2086F); assay: Kinase assay; format: biochemical; conditions: average of duplicate measurements
H2228 cells = assay: Whole cell proteomic analysis; format: cell-based, human; conditions: 100 nM, 24 h
Description: To minimize the effect of signaling blockade on proteomic changes, we decided that a more accurate quantitative determination of proteomic alterations would be to compare degrader-treated to inhibitor-treated.
Cell pellets were dissolved in 1 mL of RIPA buffer, 10 μL of phosphatase inhibitor, and 10 μL of protease inhibitor. Proteins were extracted and concentration was determined by the BCA assay. The protein samples were digested with sequencing grade modified trypsin (Promega Corp; Madison, WI) according to the manufacturer’s instructions. The peptides were labeled using the TMT Isobaric Mass Tagging kit (Thermo Fisher Scientific; # 90,060–90,061; Waltham, MA). The labeled peptide aliquots were then pooled together for subsequent fractionation and analysis. The TMT-labeled peptide mixtures were separated by an automated Easy-nLC1000 system coupled with a Q-Exactive spectrometer (Thermo Finnigan, Waltham, MA). The identification of proteins was performed using Proteome Discoverer software v2.3 (Thermo Fisher Scientific; Waltham, MA) and Mascot v2.6 (Matrix Science, Boston, MA), based on “Uniprot Human” database. The proteins that were identified on the basis of at least one unique peptide were included in the data. The ratios of TMT reporter ion abundance in 9o-treated cells and inhibitor-treated cells were used to calculate protein relative abundance.

Chain of EGFR (P00533 25-1210, species assumed): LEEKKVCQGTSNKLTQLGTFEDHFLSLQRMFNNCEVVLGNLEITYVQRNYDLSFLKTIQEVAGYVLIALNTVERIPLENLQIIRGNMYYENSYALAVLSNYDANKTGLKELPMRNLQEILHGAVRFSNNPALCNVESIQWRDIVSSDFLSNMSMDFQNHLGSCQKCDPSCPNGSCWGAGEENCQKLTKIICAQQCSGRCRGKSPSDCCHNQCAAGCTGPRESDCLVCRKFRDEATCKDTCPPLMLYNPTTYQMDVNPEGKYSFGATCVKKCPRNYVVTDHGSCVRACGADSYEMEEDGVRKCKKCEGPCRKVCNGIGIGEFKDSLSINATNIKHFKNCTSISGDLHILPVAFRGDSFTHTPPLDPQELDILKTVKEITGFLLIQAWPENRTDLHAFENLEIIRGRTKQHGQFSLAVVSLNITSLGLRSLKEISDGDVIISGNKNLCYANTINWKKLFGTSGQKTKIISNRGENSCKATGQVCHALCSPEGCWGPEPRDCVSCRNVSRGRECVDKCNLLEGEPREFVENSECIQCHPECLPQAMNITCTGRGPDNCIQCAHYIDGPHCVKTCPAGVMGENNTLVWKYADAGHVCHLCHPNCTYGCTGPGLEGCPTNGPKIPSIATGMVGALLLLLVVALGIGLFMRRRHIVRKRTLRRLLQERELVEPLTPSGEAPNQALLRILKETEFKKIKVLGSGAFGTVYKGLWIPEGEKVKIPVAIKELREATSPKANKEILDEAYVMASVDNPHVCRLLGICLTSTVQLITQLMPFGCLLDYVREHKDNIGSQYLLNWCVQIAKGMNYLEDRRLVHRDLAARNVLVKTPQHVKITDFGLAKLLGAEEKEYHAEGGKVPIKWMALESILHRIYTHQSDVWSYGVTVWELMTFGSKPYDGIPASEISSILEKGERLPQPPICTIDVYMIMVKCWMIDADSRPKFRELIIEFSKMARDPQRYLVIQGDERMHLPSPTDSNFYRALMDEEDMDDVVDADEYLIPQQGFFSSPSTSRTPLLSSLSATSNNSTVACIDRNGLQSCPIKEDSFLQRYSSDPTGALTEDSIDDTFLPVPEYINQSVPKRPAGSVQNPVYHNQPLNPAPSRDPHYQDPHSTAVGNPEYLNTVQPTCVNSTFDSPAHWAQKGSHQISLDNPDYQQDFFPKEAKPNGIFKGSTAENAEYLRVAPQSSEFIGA
Chain of ROS1 (G2032R) (P08922 28-2347 G2032R): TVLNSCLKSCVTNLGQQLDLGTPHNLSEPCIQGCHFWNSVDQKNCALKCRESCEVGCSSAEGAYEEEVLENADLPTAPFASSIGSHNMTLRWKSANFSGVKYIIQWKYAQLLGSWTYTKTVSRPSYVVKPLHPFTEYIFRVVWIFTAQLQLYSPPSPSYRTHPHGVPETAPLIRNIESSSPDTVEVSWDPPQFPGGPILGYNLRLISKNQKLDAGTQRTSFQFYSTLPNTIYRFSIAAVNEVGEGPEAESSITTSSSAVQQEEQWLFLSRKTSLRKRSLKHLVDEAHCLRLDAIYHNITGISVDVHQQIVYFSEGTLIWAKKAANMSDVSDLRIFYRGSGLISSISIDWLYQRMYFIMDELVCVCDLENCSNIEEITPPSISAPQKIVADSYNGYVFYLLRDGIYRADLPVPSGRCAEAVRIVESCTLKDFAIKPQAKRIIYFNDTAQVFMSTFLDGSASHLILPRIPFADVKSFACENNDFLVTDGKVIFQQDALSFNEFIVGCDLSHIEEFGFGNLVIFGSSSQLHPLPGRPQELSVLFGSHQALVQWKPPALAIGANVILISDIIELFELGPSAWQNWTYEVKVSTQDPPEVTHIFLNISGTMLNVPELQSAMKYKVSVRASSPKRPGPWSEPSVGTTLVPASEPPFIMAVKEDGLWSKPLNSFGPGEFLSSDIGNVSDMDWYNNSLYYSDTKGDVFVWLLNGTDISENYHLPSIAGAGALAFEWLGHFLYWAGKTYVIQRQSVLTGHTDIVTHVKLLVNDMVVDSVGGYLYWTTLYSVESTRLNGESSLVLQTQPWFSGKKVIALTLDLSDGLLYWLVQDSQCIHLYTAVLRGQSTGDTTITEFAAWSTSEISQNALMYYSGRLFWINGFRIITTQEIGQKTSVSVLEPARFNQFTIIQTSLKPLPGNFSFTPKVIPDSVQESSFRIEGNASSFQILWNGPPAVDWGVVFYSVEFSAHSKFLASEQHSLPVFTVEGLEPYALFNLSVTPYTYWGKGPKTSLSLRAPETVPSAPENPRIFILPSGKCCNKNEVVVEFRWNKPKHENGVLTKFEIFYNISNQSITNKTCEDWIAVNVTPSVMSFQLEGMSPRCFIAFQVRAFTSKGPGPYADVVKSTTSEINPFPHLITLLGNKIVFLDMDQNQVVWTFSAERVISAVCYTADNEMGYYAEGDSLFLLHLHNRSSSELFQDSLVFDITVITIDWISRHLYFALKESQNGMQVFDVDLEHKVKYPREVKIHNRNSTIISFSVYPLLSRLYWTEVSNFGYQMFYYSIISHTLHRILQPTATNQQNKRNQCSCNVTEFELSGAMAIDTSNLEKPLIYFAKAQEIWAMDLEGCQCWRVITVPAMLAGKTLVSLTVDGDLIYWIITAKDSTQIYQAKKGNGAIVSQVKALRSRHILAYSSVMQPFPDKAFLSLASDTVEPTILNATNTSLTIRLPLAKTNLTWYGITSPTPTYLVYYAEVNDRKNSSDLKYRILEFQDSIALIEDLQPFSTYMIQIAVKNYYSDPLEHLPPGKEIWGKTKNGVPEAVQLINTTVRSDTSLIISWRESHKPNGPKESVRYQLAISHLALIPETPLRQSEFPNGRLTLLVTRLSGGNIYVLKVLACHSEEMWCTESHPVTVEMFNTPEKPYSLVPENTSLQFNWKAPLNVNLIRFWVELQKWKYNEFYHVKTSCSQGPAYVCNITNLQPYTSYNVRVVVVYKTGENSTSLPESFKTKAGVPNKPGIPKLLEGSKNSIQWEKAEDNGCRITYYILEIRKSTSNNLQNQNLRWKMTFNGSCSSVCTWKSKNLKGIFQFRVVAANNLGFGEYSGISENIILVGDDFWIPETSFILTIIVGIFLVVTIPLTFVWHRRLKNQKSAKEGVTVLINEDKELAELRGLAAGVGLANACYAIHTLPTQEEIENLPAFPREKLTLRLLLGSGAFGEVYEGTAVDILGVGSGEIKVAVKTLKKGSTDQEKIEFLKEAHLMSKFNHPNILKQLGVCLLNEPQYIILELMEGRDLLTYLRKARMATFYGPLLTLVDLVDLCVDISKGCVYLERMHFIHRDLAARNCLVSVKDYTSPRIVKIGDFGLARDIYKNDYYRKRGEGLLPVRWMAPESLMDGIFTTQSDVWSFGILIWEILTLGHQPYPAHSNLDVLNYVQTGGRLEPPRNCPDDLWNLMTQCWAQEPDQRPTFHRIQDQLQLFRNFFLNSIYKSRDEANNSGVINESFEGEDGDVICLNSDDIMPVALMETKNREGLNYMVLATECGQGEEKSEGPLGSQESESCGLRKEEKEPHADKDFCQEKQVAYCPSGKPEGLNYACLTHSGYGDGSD
Chain of ROS1 (L2086F) (P08922 28-2347 L2086F): as the sequence (P08922 28-2347 G2032R) above, with R2005G, L2059F counted along it
Chain of C-MET (P08581 25-1390): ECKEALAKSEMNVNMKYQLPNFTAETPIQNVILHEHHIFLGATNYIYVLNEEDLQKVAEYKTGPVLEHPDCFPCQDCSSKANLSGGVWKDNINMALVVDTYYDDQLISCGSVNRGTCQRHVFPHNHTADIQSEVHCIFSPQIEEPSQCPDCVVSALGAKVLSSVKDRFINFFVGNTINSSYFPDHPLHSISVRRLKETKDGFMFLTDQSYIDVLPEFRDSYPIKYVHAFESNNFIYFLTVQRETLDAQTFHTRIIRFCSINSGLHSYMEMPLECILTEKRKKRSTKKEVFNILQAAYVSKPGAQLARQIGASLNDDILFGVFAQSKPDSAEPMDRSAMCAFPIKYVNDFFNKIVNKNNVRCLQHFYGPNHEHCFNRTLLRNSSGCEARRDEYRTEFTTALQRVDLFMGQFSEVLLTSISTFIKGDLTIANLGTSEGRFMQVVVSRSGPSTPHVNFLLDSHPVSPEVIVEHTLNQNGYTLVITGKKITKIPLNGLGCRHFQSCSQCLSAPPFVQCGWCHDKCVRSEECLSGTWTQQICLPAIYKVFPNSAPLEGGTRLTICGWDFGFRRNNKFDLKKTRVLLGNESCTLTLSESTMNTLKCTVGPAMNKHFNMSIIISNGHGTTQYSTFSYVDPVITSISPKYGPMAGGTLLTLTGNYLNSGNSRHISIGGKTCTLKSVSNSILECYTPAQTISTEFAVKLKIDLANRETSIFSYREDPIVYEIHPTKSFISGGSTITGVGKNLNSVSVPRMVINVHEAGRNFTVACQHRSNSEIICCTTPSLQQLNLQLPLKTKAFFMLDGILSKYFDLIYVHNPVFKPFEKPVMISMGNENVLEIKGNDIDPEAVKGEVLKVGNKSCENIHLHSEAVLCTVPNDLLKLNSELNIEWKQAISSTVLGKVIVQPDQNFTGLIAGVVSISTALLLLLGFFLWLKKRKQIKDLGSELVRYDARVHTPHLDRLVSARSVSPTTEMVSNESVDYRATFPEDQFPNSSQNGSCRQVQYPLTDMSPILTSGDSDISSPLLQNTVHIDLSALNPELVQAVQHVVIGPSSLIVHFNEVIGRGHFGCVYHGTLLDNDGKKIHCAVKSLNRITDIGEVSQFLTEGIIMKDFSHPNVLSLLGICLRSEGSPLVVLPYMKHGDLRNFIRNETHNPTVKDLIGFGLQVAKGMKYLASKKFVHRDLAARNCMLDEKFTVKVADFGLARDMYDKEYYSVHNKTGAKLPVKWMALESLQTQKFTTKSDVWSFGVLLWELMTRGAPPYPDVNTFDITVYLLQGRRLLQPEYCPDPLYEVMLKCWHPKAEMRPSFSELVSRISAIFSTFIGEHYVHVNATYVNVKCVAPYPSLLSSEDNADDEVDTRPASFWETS

## COc1cc(N2CCC(N3CCN(CC4CCN(c5ccc6c(c5)CN(C5CCC(=O)NC5=O)C6=O)CC4)CC3)CC2)ccc1Nc1ncc(Cl)c(Nc2ccccc2P(C)(C)=O)n1 (centres unmarked) [9o, 3-(5-(4-((4-(1-(4-((5-Chloro-4-((2-(dimethylphosphoryl)phenyl)amino)pyrimidin-2-yl)amino)-3-methoxyphenyl)piperidin-4-yl)piperazin-1-yl)methyl)piperidin-1-yl)-1-oxoisoindolin-2-yl)piperidine-2,6-dione]
ROS1 (G2032R)
  IC50: 161 nM
[1]; 10 mg/kg PO qd
  TGI (tumor growth inhibition): 62%
[1]; 30 mg/kg PO qd
  TGI (tumor growth inhibition): 164%
EGFR
  IC50: 69 nM
[2]
  IC50: 1.1 ± 0.3 nM
CHEK2
  DC50: 187 nM
Ba/F3 ROS1-G2032R
  IC50: 6.3 ± 2.1 nM
C-MET
  IC50: 95 nM
[3]
  IC50: 1.9 to 66 nM
ROS1 (L2086F)
  IC50: 218 nM
H2228 cells
  kinases significantly degraded (proteomics, degrader-treated vs brigatinib-treated): only three kinases were significantly degraded
